Test results: PubChem BioAssay (NCI)
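How tested: cells in 96-well plates exposed to compound for 48 hours at five concentrations. GI50 marks 50% less growth. TGI is the concentration that stops growth completely.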

Key:
Test in all cases: NCI tumour cell line growth inhibition, 48 h; in the data active = GI50 below about 0.43 µM; inactive = the rest
786-0 renal = system: 786-0 renal
A498 renal = system: A498 renal
A549 NSCLC = system: A549 NSCLC
ACHN renal = system: ACHN renal
BT-549 breast = system: BT-549 breast
CAKI-1 renal = system: CAKI-1 renal
CCRF-CEM leukemia = system: CCRF-CEM leukemia
COLO 205 colon = system: COLO 205 colon
DU-145 prostate = system: DU-145 prostate
HCC-2998 colon = system: HCC-2998 colon
HCT-116 colon = system: HCT-116 colon
HCT-15 colon = system: HCT-15 colon
HL-60(TB) leukemia = system: HL-60(TB) leukemia
HOP-62 NSCLC = system: HOP-62 NSCLC
HOP-92 NSCLC = system: HOP-92 NSCLC
HS 578T breast = system: HS 578T breast
HT29 colon = system: HT29 colon
IGROV1 ovarian = system: IGROV1 ovarian
K-562 leukemia = system: K-562 leukemia
KM12 colon = system: KM12 colon
LOX IMVI melanoma = system: LOX IMVI melanoma
M14 melanoma = system: M14 melanoma
MALME-3M melanoma = system: MALME-3M melanoma
MCF7 breast = system: MCF7 breast
MDA-MB-231 breast = system: MDA-MB-231 breast
MDA-MB-435 = system: MDA-MB-435
MOLT-4 leukemia = system: MOLT-4 leukemia
NCI-H226 lung = system: NCI-H226 lung
NCI-H23 lung = system: NCI-H23 lung
NCI-H460 lung = system: NCI-H460 lung
NCI-H522 lung = system: NCI-H522 lung
NCI/ADR-RES ovarian = system: NCI/ADR-RES ovarian
OVCAR-3 ovarian = system: OVCAR-3 ovarian
OVCAR-4 ovarian = system: OVCAR-4 ovarian
OVCAR-5 ovarian = system: OVCAR-5 ovarian
OVCAR-8 ovarian = system: OVCAR-8 ovarian
PC-3 prostate = system: PC-3 prostate
RPMI-8226 leukemia = system: RPMI-8226 leukemia
RXF 393 renal = system: RXF 393 renal
SF-268 CNS = system: SF-268 CNS
SF-295 CNS = system: SF-295 CNS
SK-MEL-2 melanoma = system: SK-MEL-2 melanoma
SK-MEL-28 melanoma = system: SK-MEL-28 melanoma
SK-MEL-5 melanoma = system: SK-MEL-5 melanoma
SK-OV-3 ovarian = system: SK-OV-3 ovarian
SN12C renal = system: SN12C renal
SNB-19 CNS = system: SNB-19 CNS
SNB-75 CNS = system: SNB-75 CNS
SR leukemia = system: SR leukemia
SW-620 colon = system: SW-620 colon
T-47D breast = system: T-47D breast
TK-10 renal = system: TK-10 renal
U251 CNS = system: U251 CNS
UACC-257 melanoma = system: UACC-257 melanoma
UACC-62 melanoma = system: UACC-62 melanoma
UO-31 renal = system: UO-31 renal

CCCCCCCCCCCCCCNc1nc(C(=O)OCC)ncc1-c1ccc(C(F)(F)F)cc1
inactive: GI50 (786-0 renal) > 100 µM | GI50 (A498 renal) > 100 µM | GI50 (A549 NSCLC) > 100 µM | GI50 (ACHN renal) > 100 µM | GI50 (BT-549 breast) > 100 µM | GI50 (CAKI-1 renal) > 100 µM | GI50 (CCRF-CEM leukemia) > 100 µM | GI50 (COLO 205 colon) > 100 µM | GI50 (DU-145 prostate) > 100 µM | GI50 (HCC-2998 colon) > 100 µM | GI50 (HCT-116 colon) > 100 µM | GI50 (HCT-15 colon) > 100 µM | GI50 (HL-60(TB) leukemia) > 100 µM | GI50 (HOP-62 NSCLC) > 100 µM | GI50 (HOP-92 NSCLC) > 100 µM | GI50 (HS 578T breast) > 100 µM | GI50 (HT29 colon) > 100 µM | GI50 (IGROV1 ovarian) > 100 µM | GI50 (K-562 leukemia) > 100 µM | GI50 (KM12 colon) > 100 µM | GI50 (LOX IMVI melanoma) > 100 µM | GI50 (M14 melanoma) > 100 µM | GI50 (MALME-3M melanoma) > 100 µM | GI50 (MCF7 breast) > 100 µM | GI50 (MDA-MB-231 breast) > 100 µM | GI50 (MDA-MB-435) > 100 µM | GI50 (MOLT-4 leukemia) > 100 µM | GI50 (NCI-H226 lung) > 100 µM | GI50 (NCI-H23 lung) > 100 µM | GI50 (NCI-H460 lung) > 100 µM | GI50 (NCI-H522 lung) > 100 µM | GI50 (NCI/ADR-RES ovarian) > 100 µM | GI50 (OVCAR-3 ovarian) > 100 µM | GI50 (OVCAR-4 ovarian) 48.1 µM | GI50 (OVCAR-5 ovarian) > 100 µM | GI50 (OVCAR-8 ovarian) > 100 µM | GI50 (PC-3 prostate) 27.5 µM | GI50 (RPMI-8226 leukemia) > 100 µM | GI50 (RXF 393 renal) > 100 µM | GI50 (SF-268 CNS) > 100 µM | GI50 (SF-295 CNS) > 100 µM | GI50 (SK-MEL-2 melanoma) > 100 µM | GI50 (SK-MEL-28 melanoma) > 100 µM | GI50 (SK-MEL-5 melanoma) > 100 µM | GI50 (SK-OV-3 ovarian) > 100 µM | GI50 (SN12C renal) > 100 µM | GI50 (SNB-19 CNS) > 100 µM | GI50 (SNB-75 CNS) > 100 µM | GI50 (SR leukemia) > 100 µM | GI50 (SW-620 colon) > 100 µM | GI50 (T-47D breast) > 100 µM | GI50 (TK-10 renal) > 100 µM | GI50 (U251 CNS) > 100 µM | GI50 (UACC-257 melanoma) > 100 µM | GI50 (UACC-62 melanoma) > 100 µM | GI50 (UO-31 renal) > 100 µM
> 100 µM: TGI (786-0 renal) | TGI (A498 renal) | TGI (A549 NSCLC) | TGI (ACHN renal) | TGI (BT-549 breast) | TGI (CAKI-1 renal) | TGI (CCRF-CEM leukemia) | TGI (COLO 205 colon) | TGI (DU-145 prostate) | TGI (HCC-2998 colon) | TGI (HCT-116 colon) | TGI (HCT-15 colon) | TGI (HL-60(TB) leukemia) | TGI (HOP-62 NSCLC) | TGI (HOP-92 NSCLC) | TGI (HS 578T breast) | TGI (HT29 colon) | TGI (IGROV1 ovarian) | TGI (K-562 leukemia) | TGI (KM12 colon) | TGI (LOX IMVI melanoma) | TGI (M14 melanoma) | TGI (MALME-3M melanoma) | TGI (MCF7 breast) | TGI (MDA-MB-231 breast) | TGI (MDA-MB-435) | TGI (MOLT-4 leukemia) | TGI (NCI-H226 lung) | TGI (NCI-H23 lung) | TGI (NCI-H460 lung) | TGI (NCI-H522 lung) | TGI (NCI/ADR-RES ovarian) | TGI (OVCAR-3 ovarian) | TGI (OVCAR-4 ovarian) | TGI (OVCAR-5 ovarian) | TGI (OVCAR-8 ovarian) | TGI (PC-3 prostate) | TGI (RPMI-8226 leukemia) | TGI (RXF 393 renal) | TGI (SF-268 CNS) | TGI (SF-295 CNS) | TGI (SK-MEL-2 melanoma) | TGI (SK-MEL-28 melanoma) | TGI (SK-MEL-5 melanoma) | TGI (SK-OV-3 ovarian) | TGI (SN12C renal) | TGI (SNB-19 CNS) | TGI (SNB-75 CNS) | TGI (SR leukemia) | TGI (SW-620 colon) | TGI (T-47D breast) | TGI (TK-10 renal) | TGI (U251 CNS) | TGI (UACC-257 melanoma) | TGI (UACC-62 melanoma) | TGI (UO-31 renal)
